According to the NIST ThermoML archive (doi:10.1021/je049762q):
Several values for one entry are separate records, joined by “and”; a condition that tells them apart may be missing. Equal entries are not always repeated. Numbers after ± are expanded uncertainties.

Assay: molar heat capacity at constant pressure
Details: 101.33 kPa, Crystal

Clc1cc(Cl)cc(Cl)c1 [1,3,5-trichlorobenzene]
Details | molar heat capacity at constant pressure
6.3 K | 0.73 ± 0.04 J/K/mol
6.76 K | 1.13 ± 0.04 J/K/mol
7.5 K | 1.88 ± 0.05 J/K/mol
7.61 K | 1.64 ± 0.05 J/K/mol
8.27 K | 2.46 ± 0.06 J/K/mol
8.49 K | 2.76 ± 0.07 J/K/mol
9.54 K | 3.28 ± 0.07 J/K/mol
9.57 K | 3.32 ± 0.07 J/K/mol
10 K | 3.78 ± 0.08 J/K/mol
10.48 K | 4.28 ± 0.09 J/K/mol
10.78 K | 4.56 ± 0.09 J/K/mol
11.23 K | 4.67 ± 0.09 J/K/mol
11.76 K | 5.07 ± 0.1 J/K/mol
12.18 K | 5.67 ± 0.11 J/K/mol
13.16 K | 7.41 ± 0.13 J/K/mol
14.33 K | 8.56 ± 0.14 J/K/mol
14.68 K | 9.1 ± 0.15 J/K/mol
15 K | 9.58 ± 0.15 J/K/mol
16.47 K | 11.78 ± 0.17 J/K/mol
16.54 K | 11.86 ± 0.17 J/K/mol
18.11 K | 14.04 ± 0.19 J/K/mol
18.46 K | 14.51 ± 0.19 J/K/mol
19.49 K | 16.03 ± 0.21 J/K/mol
20 K | 16.74 ± 0.21 J/K/mol
20.47 K | 17.39 ± 0.21 J/K/mol
20.67 K | 17.88 ± 0.22 J/K/mol
21.77 K | 19.17 ± 0.22 J/K/mol
22.76 K | 20.24 ± 0.22 J/K/mol
24.03 K | 21.5 ± 0.22 J/K/mol
25 K | 22.66 ± 0.23 J/K/mol
25.53 K | 23.3 ± 0.23 J/K/mol
26.89 K | 24.95 ± 0.23 J/K/mol
26.99 K | 25.08 ± 0.23 J/K/mol
28.15 K | 26.53 ± 0.22 J/K/mol
29.75 K | 28.33 ± 0.22 J/K/mol
30 K | 28.58 ± 0.2 J/K/mol
32.12 K | 30.66 ± 0.2 J/K/mol
34.24 K | 32.73 ± 0.21 J/K/mol
36.16 K | 34.21 ± 0.22 J/K/mol
37.93 K | 35.9 ± 0.22 J/K/mol
39.58 K | 37.3 ± 0.23 J/K/mol
40 K | 37.64 ± 0.23 J/K/mol
41.88 K | 39.13 ± 0.24 J/K/mol
44.77 K | 41.44 ± 0.25 J/K/mol
47.4 K | 43.42 ± 0.25 J/K/mol
49.84 K | 45.24 ± 0.26 J/K/mol
50 K | 45.36 ± 0.26 J/K/mol
52.12 K | 46.94 ± 0.27 J/K/mol
54.28 K | 48.44 ± 0.27 J/K/mol
56.33 K | 49.86 ± 0.28 J/K/mol
58.29 K | 51.22 ± 0.29 J/K/mol
60 K | 52.37 ± 0.29 J/K/mol
60.17 K | 52.49 ± 0.29 J/K/mol
61.98 K | 53.68 ± 0.3 J/K/mol
63.73 K | 54.83 ± 0.3 J/K/mol
65.43 K | 55.89 ± 0.3 J/K/mol
67.08 K | 56.99 ± 0.31 J/K/mol
68.68 K | 57.99 ± 0.31 J/K/mol
70 K | 58.81 ± 0.32 J/K/mol
70.25 K | 58.96 ± 0.32 J/K/mol
71.78 K | 59.87 ± 0.32 J/K/mol
73.27 K | 60.75 ± 0.32 J/K/mol
74.74 K | 61.66 ± 0.33 J/K/mol
76.18 K | 62.52 ± 0.33 J/K/mol
77.59 K | 63.36 ± 0.33 J/K/mol
78.98 K | 64.16 ± 0.34 J/K/mol
80 K | 65.01 ± 0.34 J/K/mol
80.55 K | 65.45 ± 0.34 J/K/mol
81.45 K | 65.93 ± 0.34 J/K/mol
82.22 K | 66.44 ± 0.35 J/K/mol
83.86 K | 67.37 ± 0.35 J/K/mol
83.98 K | 67.39 ± 0.35 J/K/mol
85.47 K | 68.28 ± 0.35 J/K/mol
86.45 K | 68.77 ± 0.36 J/K/mol
87.05 K | 69.08 ± 0.36 J/K/mol
88.6 K | 70 ± 0.36 J/K/mol
88.86 K | 70.1 ± 0.36 J/K/mol
90 K | 70.62 ± 0.54 J/K/mol
90.14 K | 70.69 ± 0.54 J/K/mol
91.23 K | 71.17 ± 0.54 J/K/mol
91.65 K | 71.42 ± 0.54 J/K/mol
93.14 K | 72.19 ± 0.54 J/K/mol
93.56 K | 72.31 ± 0.54 J/K/mol
94.61 K | 72.86 ± 0.55 J/K/mol
94.95 K | 73 ± 0.55 J/K/mol
95.84 K | 73.25 ± 0.55 J/K/mol
96.07 K | 73.4 ± 0.55 J/K/mol
97.51 K | 74.13 ± 0.55 J/K/mol
98.08 K | 74.45 ± 0.55 J/K/mol
98.92 K | 74.86 ± 0.55 J/K/mol
100 K | 75.37 ± 0.55 J/K/mol
100.29 K | 74.9 ± 0.55 J/K/mol
101.72 K | 76.37 ± 0.55 J/K/mol
102.39 K | 76.72 ± 0.55 J/K/mol
102.47 K | 76.71 ± 0.55 J/K/mol
103.09 K | 76.88 ± 0.55 J/K/mol
104.45 K | 77.52 ± 0.56 J/K/mol
104.61 K | 77.48 ± 0.56 J/K/mol
105.8 K | 78.18 ± 0.56 J/K/mol
105.97 K | 78.26 ± 0.56 J/K/mol
106.72 K | 78.56 ± 0.56 J/K/mol
107.13 K | 78.9 ± 0.56 J/K/mol
107.15 K | 78.92 ± 0.56 J/K/mol
108.46 K | 79.49 ± 0.56 J/K/mol
108.81 K | 79.58 ± 0.56 J/K/mol
109.46 K | 80.02 ± 0.56 J/K/mol
109.77 K | 80.18 ± 0.56 J/K/mol
110 K | 80.28 ± 0.56 J/K/mol
110.87 K | 80.59 ± 0.56 J/K/mol
111.07 K | 80.74 ± 0.56 J/K/mol
111.47 K | 80.93 ± 0.56 J/K/mol
112.36 K | 81.34 ± 0.56 J/K/mol
112.87 K | 81.56 ± 0.56 J/K/mol
113.65 K | 81.98 ± 0.56 J/K/mol
114.92 K | 82.54 ± 0.57 J/K/mol and 82.67 ± 0.57 J/K/mol
115.68 K | 83.09 ± 0.57 J/K/mol
116.19 K | 83.21 ± 0.57 J/K/mol
116.91 K | 83.54 ± 0.57 J/K/mol
118.88 K | 84.5 ± 0.57 J/K/mol
119.52 K | 84.75 ± 0.57 J/K/mol
119.79 K | 85.04 ± 0.57 J/K/mol
120 K | 85.15 ± 0.57 J/K/mol
120.83 K | 85.51 ± 0.57 J/K/mol
122.75 K | 86.55 ± 0.57 J/K/mol
124.68 K | 87.28 ± 0.57 J/K/mol
125.93 K | 87.73 ± 0.58 J/K/mol
126.58 K | 88.03 ± 0.58 J/K/mol
127.78 K | 88.73 ± 0.58 J/K/mol
128.47 K | 88.92 ± 0.58 J/K/mol
129.07 K | 89.19 ± 0.58 J/K/mol
130 K | 89.68 ± 0.58 J/K/mol
130.33 K | 89.86 ± 0.58 J/K/mol
131.66 K | 90.66 ± 0.58 J/K/mol
132.19 K | 90.72 ± 0.58 J/K/mol
134.03 K | 91.56 ± 0.58 J/K/mol
135.22 K | 92.02 ± 0.58 J/K/mol
135.48 K | 92.36 ± 0.58 J/K/mol
135.85 K | 92.4 ± 0.58 J/K/mol
137.66 K | 93.21 ± 0.59 J/K/mol
138.23 K | 93.42 ± 0.59 J/K/mol
139.24 K | 94.03 ± 0.59 J/K/mol
140 K | 94.33 ± 0.59 J/K/mol
141.21 K | 94.75 ± 0.59 J/K/mol
141.25 K | 94.81 ± 0.59 J/K/mol
142.95 K | 95.67 ± 0.59 J/K/mol
144.16 K | 96.04 ± 0.59 J/K/mol
146.61 K | 97.27 ± 0.59 J/K/mol
147.08 K | 97.34 ± 0.59 J/K/mol
149.97 K | 98.63 ± 0.6 J/K/mol
150 K | 98.65 ± 0.6 J/K/mol
150.22 K | 98.83 ± 0.6 J/K/mol
152.83 K | 99.87 ± 0.6 J/K/mol
153.79 K | 100.35 ± 0.6 J/K/mol
155.66 K | 101.1 ± 0.6 J/K/mol
157.32 K | 101.86 ± 0.6 J/K/mol
158.47 K | 102.3 ± 0.6 J/K/mol
160 K | 102.99 ± 0.61 J/K/mol
160.81 K | 103.34 ± 0.61 J/K/mol
161.25 K | 103.49 ± 0.61 J/K/mol
164.01 K | 104.67 ± 0.61 J/K/mol
164.27 K | 104.83 ± 0.61 J/K/mol
166.74 K | 105.83 ± 0.61 J/K/mol
167.69 K | 106.28 ± 0.61 J/K/mol
169.46 K | 106.98 ± 0.61 J/K/mol
170 K | 107.22 ± 0.61 J/K/mol
